For nine molecules, TGI and GI50 results are on record in PubChem BioAssay (NCI).

Holding throughout (experiment): DTP human tumour cell line panel, 48 h
Experiment [1] relates to NCI-H226 lung.
Experiment [2] concerns SF-295 CNS.
Experiment [3] relates to CCRF-CEM leukemia.
Experiment [4] relates to SK-MEL-2 melanoma.
Experiment [5] relates to UACC-257 melanoma.
Experiment [6] has as its system OVCAR-8 ovarian.
The subject of experiment [7] is U251 CNS.
For experiment [8], the system named is SR leukemia.
The subject of experiment [9] is HOP-92 NSCLC.
Experiment [10] deals with IGROV1 ovarian.

Where “and” joins values, the source holds several entries; their conditions need not be identical. Equal entries are not always repeated.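 Dose response: 5 concentrations. Exposure: 48 h. Format: 96-well plates. Endpoint: linear interpolation; highest concentration if not reached. GI50 marks 50% less growth. TGI: total growth inhibition.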

In general, TGI refers to the concentration at which net growth stops. Low values mean greater sensitivity of the cells, high ones lower sensitivity of the cells. With `CCN(CC)CCNC(=O)c1nn(C)c(=S)[nH]c1=S`, the TGI in experiment [1], in experiment [2], in experiment [3], in experiment [4], in [5] and in experiment [6] was more than 100 µM throughout. Further, the TGI in [7], in experiment [8], in [9] and in experiment [10] was more than 100 µM throughout.

A word on the GI50: it is the concentration giving 50% growth inhibition. With `CC/C(=C(/CC)c1ccc(O)cc1)c1ccc([O-])cc1.CC/C(=C(/CC)c1ccc(O)cc1)c1ccc([O-])cc1.O=C([CH-]C(=O)c1ccccc1)c1ccccc1.O=C([CH-]C(=O)c1ccccc1)c1ccccc1.[Ti+4]`, the GI50 in [1] is 23.6 µM; in experiment [2], 17.9 µM; in [3], 4.57 µM; in [4], 11.9 µM; in [5], 15.1 µM; in experiment [6], 21.5 µM. Moreover, the GI50 in experiment [7] was 13.9 µM; in experiment [8], 9.89 µM; in experiment [9] it was 14.2 µM; in experiment [10], 16.1 µM. In addition, the TGI in [1] is 45.5 µM; in [2] it was 35 µM; in [3] it was more than 100 µM; in [4], 25.2 µM; in experiment [5] it was 35.9 µM; in experiment [6] it was 46.3 µM. Besides, the TGI was 26.9 µM in experiment [7], more than 100 µM in experiment [8], 27.2 µM in experiment [9] and 37.7 µM in [10].

On to `COc1ccc(-c2nc3ncccn3c2/C=C/C(=O)c2cc(OC)c(OC)c(OC)c2)cc1`, for which the GI50 is 2.28 µM in experiment [1]; 2.39 µM in experiment [2]; 4.01 µM in experiment [3]; 1.87 µM in [4]; 1.88 µM in [5]; 2.72 µM in experiment [6]. The GI50 was 1.29 µM in [7], 1.53 µM in experiment [8], 1.43 µM in [9] and 2.2 µM in [10]. For the same molecule, the concentration for total growth inhibition (TGI) in experiment [1] is 6.92 µM; in experiment [2], 4.83 µM; in experiment [3], more than 100 µM; in experiment [4] it was 4.69 µM; in experiment [5], 4.81 µM; in experiment [6], more than 100 µM. The total growth inhibition concentration (TGI) in experiment [7] was 4.26 µM; in experiment [8], more than 100 µM; in experiment [9] it was 12 µM; in [10], 6.29 µM.

`COc1c(Cl)c2c(c(OC)c1OC)-c1ccc(SC)c(=O)cc1[C@@H](NC(=O)OCC(F)(F)F)CC2`: the concentration for 50% growth inhibition (GI50) was less than 0.01 µM in [1]; less than 0.01 µM in [2]; less than 0.01 µM in experiment [3]; 4.2 µM in [4]; 9.61 µM in experiment [5]; less than 0.01 µM in [6]. The GI50 is less than 0.01 µM in experiment [7], less than 0.01 µM in [8], less than 0.0179 µM in experiment [9] and less than 0.01 µM in [10]. Besides, the TGI in [1] is 41.5 µM; in [2] it was 2.98 µM; in experiment [3], more than 100 µM; in experiment [4], more than 100 µM; in [5], more than 100 µM; in experiment [6], more than 100 µM. The TGI in experiment [7] was more than 39.2 µM; in experiment [8], 17.9 µM; in experiment [9], 7.03 µM; in [10] it was more than 100 µM.

Regarding `O=[N+]([O-])c1ccc(N=Nc2c(O)ccc3ccccc23)cc1`, the GI50 in [1] is 35.4 µM and > 100 µM; in experiment [2], 29.8 µM and > 100 µM; in [3], 28.4 µM and > 100 µM; in experiment [6], more than 100 µM; in experiment [7], 22.5 µM and > 100 µM; in [9], 32.5 µM and > 100 µM. The TGI in [1], in experiment [2], in experiment [3], in experiment [4], in experiment [5] and in experiment [6] was more than 100 µM each time. The TGI in experiment [7] was 67 µM and > 100 µM; in experiment [8], more than 100 µM; in experiment [9] it was more than 100 µM; in experiment [10], more than 100 µM.

For `COC(=O)C12C3C4C5C3(C#N)C1C5(C(=O)OC)C42C(=O)N(C(C)C)C(C)C` (stereo unspecified), the TGI in experiment [1] was more than 100 µM; in [2] it was more than 100 µM; in experiment [3], more than 67.5 µM; in experiment [4] it was more than 100 µM; in experiment [5] it was more than 100 µM; in experiment [6], more than 100 µM. Further, the TGI in experiment [7] is more than 100 µM; in experiment [8] it was 33.3 µM; in experiment [9], more than 100 µM; in experiment [10], more than 100 µM.

`Cc1nc2cc(N)c(F)cc2[nH]1`: the concentration for total growth inhibition (TGI) in experiment [1], in experiment [2], in experiment [3], in experiment [4], in experiment [5] and in [6] was more than 100 µM in each case. The TGI in [7], in [8], in experiment [9] and in experiment [10] was more than 100 µM each time.

In the case of `Cc1cc(I)cc(CN(C)CCN2CCCC2)c1O`, the GI50 in experiment [1] was 47.9 µM; in experiment [2], 13.1 µM; in experiment [3], 22.3 µM; in experiment [4], 25.6 µM; in experiment [5], 32.2 µM; in experiment [6], 46.7 µM. For the same molecule, the GI50 in [7] is 31.5 µM; in experiment [8], 1.79 µM; in experiment [9] it was 16.8 µM; in [10], 20.9 µM. Also, the TGI was more than 100 µM in experiment [1]; 36.6 µM in experiment [2]; 86 µM in experiment [3]; 63.1 µM in [4]; 51.4 µM in experiment [5]; more than 100 µM in experiment [6]. The TGI in experiment [7] was more than 95.8 µM; in experiment [8], 5.84 µM; in experiment [9] it was 68.1 µM; in experiment [10], 53.8 µM.

For `Cc1ccc(C(=O)C(Cl)C(Cl)c2ccc(C)cc2)cc1` (stereo unspecified), the TGI was found to be 11.4 µM in experiment [1]; 23.7 µM in experiment [2]; 4.28 µM in [3]; 36.2 µM in experiment [4]; 4.48 µM in experiment [5]; 7.7 µM in experiment [6]. In addition, the TGI in experiment [7] stood at 12.4 µM; in [8] it was 6.68 µM; in experiment [9], 5.24 µM; in experiment [10], 6.34 µM.
